{"source": "a melting point compilation (Tetko et al.; mined from patent text by program, amines drawn as free bases though some values may be those of a salt)"}
{"units": {"melting point": "°C"}}
{"smiles": "O=C(Nc1nccs1)C(CC1CCCC1)c1ccc(F)c(C(F)(F)F)c1", "note": "(centres undefined)", "melting point": "125 to 127"}
{"smiles": "Cn1c(=O)c2cccnc2n(C)c1=O", "melting point": "160 to 161"}
{"smiles": "NS(=O)(=O)c1cccc2c1CSC2", "melting point": "146 to 148"}
{"smiles": "Cc1cc2oc(=O)c(NC(=O)Nc3ccc(Cl)cc3)c(-c3ccccc3C)c2cc1C", "melting point": "234 to 236"}
{"smiles": "COC(=O)C1=C(C)N=C(OC)N(C(=O)NCCCC(=O)OC(C)(C)C)C1c1ccc(F)cc1", "note": "(centres undefined)", "melting point": "135 to 138"}
{"smiles": "O=C(O)c1ccc(OCCNC(=O)C2Cc3ccccc3N2S(=O)(=O)c2ccc(-c3ccc(F)cc3Cl)cc2)cc1F", "note": "(centres undefined)", "melting point": "98 to 102"}
{"smiles": "COc1ccc(-c2cc(-c3ccccc3)[nH]c2C(=O)Nc2ccc(C(=O)NO)o2)cc1", "melting point": "160 to 162"}
{"smiles": "CS(=O)(=O)c1ccc(-c2cnn(-c3cccc(Cl)c3)c(=O)c2Cc2ccccc2)cc1", "melting point": "174 to 177"}
{"smiles": "Cc1c(CC(=O)O)c2cc3c(cc2n1C(=O)c1ccc(Cl)cc1)OCO3", "melting point": "190 to 191"}
{"smiles": "Cc1ccc(-c2nccc3c(CC#N)cccc23)cc1", "melting point": 102}
{"smiles": "CCCCc1oc2ccccc2c1C(=O)Nc1ccc2c(Br)c(OCC#N)ccc2c1", "melting point": "155 to 159"}
{"smiles": "CC1(C=C(Cl)Cl)CN(C(=O)Nc2ccc(OC(F)(F)F)cc2)N=C1c1ccc(Cl)cc1", "note": "(centres undefined)", "melting point": "138 to 141"}
{"smiles": "Cc1oc(-c2ccco2)nc1COc1ccc(COc2nn(Cc3ccccc3)cc2CO)cn1", "melting point": "94 to 95"}
{"smiles": "CN1CS(=Nc2ccc3[nH]nnc3c2)c2ccccc21", "note": "(centres undefined)", "melting point": 240}
{"smiles": "Cc1c(CCO)c(=O)oc2c(O)c(O)ccc12", "melting point": "221 to 222"}
{"smiles": "CCOC(=O)c1ncc(Cl)cc1F", "melting point": "48 to 50"}
{"smiles": "CCC(CC)n1c(N)nc2c(Oc3c(C)cc(C)cc3C)nc(C)cc21", "melting point": "208 to 210"}
{"smiles": "COc1cc(OC)nc(NC(=O)NS(=O)(=O)c2c(C(F)F)nsc2OCC(F)(F)F)n1", "melting point": "200 to 202"}
{"smiles": "CCCCNC(=O)Nc1ccc(C)cc1", "melting point": "118 to 119"}
{"smiles": "NC(=O)CNC(=O)c1cccc(-c2ccc3c(n2)N(Cc2ccc(Cl)cc2Cl)CC3)c1", "melting point": "183 to 184"}
{"smiles": "CC(=O)NC[C@H]1CN(c2ccc(-n3cc(-c4ccc(C)cc4)cn3)c(F)c2)C(=O)O1", "melting point": "222 to 223"}
{"smiles": "CC(C)(C)C1=NN(c2ccc(S(=O)(=O)O)cc2)C(c2ccc(Cl)cc2)C1", "note": "(centres undefined)", "melting point": 92.5}
{"smiles": "O=C1CCC(c2ccc(NC(=O)C3(Cl)CC3)cc2)=NN1", "melting point": "231 to 232"}
{"smiles": "COCC(COC)Oc1cc(Oc2ccc(S(C)(=O)=O)nc2)cc2cc(C3=NCC(CC(N)=O)S3)[nH]c12", "note": "(centres undefined)", "melting point": "172 to 173"}
{"smiles": "O=c1cc[nH]c2c(Sc3nc4ccccc4[nH]3)cccc12", "melting point": "> 240"}
{"smiles": "CCC(C)n1ccnc1S", "note": "(centres undefined)", "melting point": "108 to 121"}
{"smiles": "COc1cc2c(cc1NC(=S)Nc1ccc([N+](=O)[O-])cc1)C(C)(C)OCC2(C)C", "melting point": "198 to 199"}
{"smiles": "ON(Cc1ccccc1)Cc1ccc(CN(O)Cc2ccccc2)cc1", "melting point": "160 to 163"}
{"smiles": "Cc1cc(C)cc(Oc2cccc([N+](=O)[O-])n2)c1", "melting point": "94 to 95"}
{"smiles": "Cc1nc(CCc2ccccc2)c2c(c1O)COC2", "melting point": 248}
{"smiles": "NC(=O)c1c(NC(=O)C2CC2)sc2c1CCC(F)(F)C2", "melting point": "207 to 208"}
{"smiles": "N#Cc1c(N2CCNCC2)c2cc(F)ccc2n(Cc2ccc(F)cc2)c1=O", "melting point": 240}
{"smiles": "Nc1nnc(-c2ccccc2OC(F)(F)C(F)F)c(N)n1", "melting point": "158 to 160"}
{"smiles": "N#Cc1c(N2CCN(C(=O)c3cccs3)CC2)c2ccccc2n(Cc2ccc(F)cc2)c1=O", "melting point": 258}
{"smiles": "CCOC(=O)C(C(=O)OCC)c1n[nH]c(C)c1[N+](=O)[O-]", "melting point": "100 to 102"}
{"smiles": "Cc1oc(-c2ccc(Cl)cc2)nc1COc1cccc(/C=C/C(C)n2oc(=O)[nH]c2=O)c1", "note": "(centres undefined)", "melting point": "172 to 174"}
{"smiles": "CC1(C)Oc2ccc([N+](=O)[O-])cc2C(n2ccccc2=O)=C1CN", "melting point": 231}
{"smiles": "COC(=O)C1CC(Oc2ccc(N)cc2)CN1C(=O)C1(C)CCc2c(C)c(O)c(C)c(C)c2O1", "note": "(centres undefined)", "melting point": "110 to 112"}
{"smiles": "CC(=O)OCCN(C)CC#CC1=Cc2ccccc2Sc2ccc(Cl)cc21", "melting point": "48 to 51"}
{"smiles": "COCC#Cc1ccc(CNC(=O)[C@@H](COC)NC(C)=O)cc1", "melting point": "141 to 142"}
{"smiles": "CC(O)=C(C#N)C(=O)Nc1ccc(Br)cc1Br", "melting point": 181}
{"smiles": "CCOC(=O)c1nc(NC)sc1-c1nc2ccc(C)cn2c1C", "melting point": "225 to 227"}
{"smiles": "Nc1ncnc2[nH]cc(-c3ccccc3)c12", "melting point": "238 to 239"}
{"smiles": "COc1cc(Nc2nccc(-c3cccc(OCCCN4C(=O)c5ccccc5C4=O)c3)n2)cc(OC)c1OC", "melting point": 209}
{"smiles": "CC(=O)NC[C@H]1NC(=O)[C@H]1NC(=O)Cc1ccccc1", "note": "(relative stereo)", "melting point": "200 to 202"}
{"smiles": "Cc1ccc(-c2ccc(S(C)(=O)=O)cc2)n1-c1ccc(Br)cc1", "melting point": "200 to 202"}
{"smiles": "CC(C)(C)OC(=O)N1CCN(c2ccc(Oc3cc(Cl)ccc3N)cc2)CC1", "melting point": "95 to 96"}
{"smiles": "CC(=O)NC1Cc2cn(S(=O)(=O)c3c(C(C)C)cc(C(C)C)cc3C(C)C)c3cccc(c23)C1=O", "note": "(centres undefined)", "melting point": "159 to 162"}
{"smiles": "Clc1ccc2nc(Cl)c(I)n2c1", "melting point": "234 to 235"}
